Values of other authors, collected in patent US11147926B2, “Intrathecal baclofen pharmaceutical dosage forms and related delivery system” (PIRAMAL CRITICAL CARE, INC., priority 2008, dated 2021).

Legend:
[1] = injected into the intrathecal space of a patient, at effective CSF concentrations, versus oral

solubility in chloroform (chloroform): insoluble | solubility in methanol (methanol): very slightly soluble | solubility in water (water): slightly soluble | plasma concentrations, times less than with oral administration [1]: 100 times
SMILES: NCC(CC(=O)O)c1ccc(Cl)cc1 (stereo not shown) [Baclofen, 4-amino-3-(p-chlorophenyl)butyric acid]
